Experiment [1] deals with third stage larvae of Haemonchus contortus. Kind of experiment: Haemonchus contortus L3 (HcL3) Assay. In kind it is cell-based. The conditions noted are these: 96 h, read-out: HcL3 Minimum Effective Dose (MED).
Experiment [2] deals with microfilariae of Dirofilaria immitis. Kind of experiment: Dirofilaria immitis, Microfilaria (DiMF) In vitro Assay. In kind it is cell-based. The note with it: 72 h, read-out: DiMF Minimum Effective Dose (MED), approximately 72 hours incubation, microfilariae assessed for survival or paralysis.

For `Cc1cc(C)n(Cc2ccc(C[C@H]3OC(=O)[C@H](CC(C)C)N(C)C(=O)[C@@H](C)OC(=O)[C@H](CC(C)C)N(C)C(=O)[C@@H](Cc4ccccc4)OC(=O)[C@H](CC(C)C)N(C)C(=O)[C@@H](C)OC(=O)[C@H](CC(C)C)N(C)C3=O)cc2)n1` [Example 2-7, (3S,6R,9S,12R,15S,18R,21S,24R)-6-benzyl-18-[[4-[(3,5-dimethylpyrazol-1-yl)methyl]phenyl]methyl]-3,9,15,21-tetraisobutyl-4,10,12,16,22,24-hexamethyl-1,7,13,19-tetraoxa-4,10,16,22-tetrazacyclotetracosane-2,5,8,11,14,17,20,23-octaone], the minimal effective concentration in experiment [1] was in the range of 1 to 10 µM; in experiment [2] it was 0.001 to 0.01 µM.

For `CC(C)C[C@H]1C(=O)O[C@H](Cc2ccc(Cn3cc(CO)cn3)cc2)C(=O)N(C)[C@@H](CC(C)C)C(=O)O[C@H](C)C(=O)N(C)[C@@H](CC(C)C)C(=O)O[C@H](Cc2ccccc2)C(=O)N(C)[C@@H](CC(C)C)C(=O)O[C@H](C)C(=O)N1C` [Example 2-19, (3S,6R,9S,12R,15S,18R,21S,24R)-6-benzyl-18-(4-((4-(hydroxymethyl)-1H-pyrazol-1-yl)methyl)benzyl)-3,9,15,21-tetraisobutyl-4,10,12,16,22,24-hexamethyl-1,7,13,19-tetraoxa-4,10,16,22-tetraazacyclotetracosan-2,5,8,11,14,17,20,23-octaone], the minimal effective concentration in experiment [1] lay within 1 to 10 µM; in experiment [2], 0.001 to 0.01 µM.

For `CC(C)C[C@H]1C(=O)O[C@H](Cc2ccc(Cn3cc(-c4ccncn4)cn3)cc2)C(=O)N(C)[C@@H](CC(C)C)C(=O)O[C@H](C)C(=O)N(C)[C@@H](CC(C)C)C(=O)O[C@H](Cc2ccccc2)C(=O)N(C)[C@@H](CC(C)C)C(=O)O[C@H](C)C(=O)N1C` [Example 2-45, (3S,6R,9S,12R,15S,18R,21S,24R)-6-benzyl-3,9,15,21-tetraisobutyl-4,10,12,16,22,24-hexamethyl-18-(4-((4-(pyrimidin-4-yl)-1H-pyrazol-1-yl)methyl)benzyl)-1,7,13,19-tetraoxa-4,10,16,22-tetraazacyclotetracosan-2,5,8,11,14,17,20,23-octaone], the minimal effective concentration in experiment [1] is 1 to 10 µM; in experiment [2], 0.001 to 0.01 µM.

For `CC(C)C[C@H]1C(=O)O[C@H](Cc2ccc(Cn3nccc3C(C)(C)C)cc2)C(=O)N(C)[C@@H](CC(C)C)C(=O)O[C@H](C)C(=O)N(C)[C@@H](CC(C)C)C(=O)O[C@H](Cc2ccccc2)C(=O)N(C)[C@@H](CC(C)C)C(=O)O[C@H](C)C(=O)N1C` [Example 2-68, (3S,6R,9S,12R,15S,18R,21S,24R)-6-benzyl-18-(4-((5-(tert-butyl)-1H-pyrazol-1-yl)methyl)benzyl)-3,9,15,21-tetraisobutyl-4,10,12,16,22,24-hexamethyl-1,7,13,19-tetraoxa-4,10,16,22-tetraazacyclotetracosan-2,5,8,11,14,17,20,23-octaone], the minimal effective concentration in experiment [1] is 1 to 10 µM; in experiment [2] it was 0.01 to 0.1 µM.

As for `CC(C)C[C@H]1C(=O)O[C@H](Cc2ccc(Cn3ccc(C4CC4)n3)cc2)C(=O)N(C)[C@@H](CC(C)C)C(=O)O[C@H](C)C(=O)N(C)[C@@H](CC(C)C)C(=O)O[C@H](Cc2ccccc2)C(=O)N(C)[C@@H](CC(C)C)C(=O)O[C@H](C)C(=O)N1C` [Example 2-74, (3S,6R,9S,12R,15S,18R,21S,24R)-6-benzyl-18-(4-((3-cyclopropyl-1H-pyrazol-1-yl)methyl)benzyl)-3,9,15,21-tetraisobutyl-4,10,12,16,22,24-hexamethyl-1,7,13,19-tetraoxa-4,10,16,22-tetraazacyclotetracosan-2,5,8,11,14,17,20,23-octaone], the minimal effective concentration in experiment [1] is 1 to 10 µM; in experiment [2] it was 0.001 to 0.01 µM.

For `Cc1nn(Cc2ccc(C[C@H]3OC(=O)[C@H](CC(C)C)N(C)C(=O)[C@@H](C)OC(=O)[C@H](CC(C)C)N(C)C(=O)[C@@H](Cc4ccccc4)OC(=O)[C@H](CC(C)C)N(C)C(=O)[C@@H](C)OC(=O)[C@H](CC(C)C)N(C)C3=O)cc2)c(C)c1F` [Example 2-79, (3S,6R,9S,12R,15S,18R,21S,24R)-6-benzyl-18-(4-((4-fluoro-3,5-dimethyl-1H-pyrazol-1-yl)methyl)benzyl)-3,9,15,21-tetraisobutyl-4,10,12,16,22,24-hexamethyl-1,7,13,19-tetraoxa-4,10,16,22-tetraazacyclotetracosan-2,5,8,11,14,17,20,23-octaone], the results for the minimal effective concentration in experiment [1] and in experiment [2] were 1 to 10 µM and 0.01 to 0.1 µM, respectively.

For `CC(C)C[C@H]1C(=O)O[C@H](Cc2ccc(Cn3ccc(N)n3)cc2)C(=O)N(C)[C@@H](CC(C)C)C(=O)O[C@H](C)C(=O)N(C)[C@@H](CC(C)C)C(=O)O[C@H](Cc2ccccc2)C(=O)N(C)[C@@H](CC(C)C)C(=O)O[C@H](C)C(=O)N1C` [Example 2-87, (3S,6R,9S,12R,15S,18R,21S,24R)-6-(4-((3-amino-1H-pyrazol-1-yl)methyl)benzyl)-18-benzyl-3,9,15,21-tetraisobutyl-4,10,12,16,22,24-hexamethyl-1,7,13,19-tetraoxa-4,10,16,22-tetraazacyclotetracosan-2,5,8,11,14,17,20,23-octaone], the figures for the minimal effective concentration in experiment [1] and in experiment [2] were 1 to 10 µM and 0.001 to 0.01 µM, respectively.

In the case of `CC(C)C[C@H]1C(=O)O[C@H](Cc2ccc(Cn3ccnc3C3CC3)cc2)C(=O)N(C)[C@@H](CC(C)C)C(=O)O[C@H](C)C(=O)N(C)[C@@H](CC(C)C)C(=O)O[C@H](Cc2ccc(Cn3ccnc3C3CC3)cc2)C(=O)N(C)[C@@H](CC(C)C)C(=O)O[C@H](C)C(=O)N1C` [Example 6-7, (3S,6R,9S,12R,15S,18R,21S,24R)-6,18-bis[[4-[(2-cyclopropylimidazol-1-yl)methyl]phenyl]methyl]-3,9,15,21-tetraisobutyl-4,10,12,16,22,24-hexamethyl-1,7,13,19-tetraoxa-4,10,16,22-tetrazacyclotetracosane-2,5,8,11,14,17,20,23-octaone], the minimal effective concentration fell in the range of 1 to 10 µM in experiment [1] and 0.01 to 0.1 µM in experiment [2].

Consider `CCOCc1nccn1Cc1ccc(C[C@H]2OC(=O)[C@H](CC(C)C)N(C)C(=O)[C@@H](C)OC(=O)[C@H](CC(C)C)N(C)C(=O)[C@@H](Cc3ccc(Cn4ccnc4COCC)cc3)OC(=O)[C@H](CC(C)C)N(C)C(=O)[C@@H](C)OC(=O)[C@H](CC(C)C)N(C)C2=O)cc1` [Example 6-20, (3S,6R,9S,12R,15S,18R,21S,24R)-6,18-bis(4-((2-(ethoxymethyl)-1H-imidazol-1-yl)methyl)benzyl)-3,9,15,21-tetraisobutyl-4,10,12,16,22,24-hexamethyl-1,7,13,19-tetraoxa-4,10,16,22-tetraazacyclotetracosan-2,5,8,11,14,17,20,23-octaone], for which the minimal effective concentration lay in the range of 1 to 10 µM in experiment [1] and 0.001 to 0.01 µM in experiment [2].

With `CCc1nccn1Cc1ccc(C[C@H]2OC(=O)[C@H](CC(C)C)N(C)C(=O)[C@@H](C)OC(=O)[C@H](CC(C)C)N(C)C(=O)[C@@H](Cc3ccccc3)OC(=O)[C@H](CC(C)C)N(C)C(=O)[C@@H](C)OC(=O)[C@H](CC(C)C)N(C)C2=O)cc1` [Example 8-4, (3S,6R,9S,12R,15S,18R,21S,24R)-6-benzyl-18-[[4-[(2-ethylimidazol-1-yl)methyl]phenyl]methyl]-3,9,15,21-tetraisobutyl-4,10,12,16,22,24-hexamethyl-1,7,13,19-tetraoxa-4,10,16,22-tetrazacyclotetracosane-2,5,8,11,14,17,20,23-octaone], the results for the minimal effective concentration in experiment [1] and in experiment [2] were 1 to 10 µM and 0.01 to 0.1 µM, respectively.

With `CC(C)C[C@H]1C(=O)O[C@H](Cc2ccc(Cn3ccnc3C(C)(C)C)cc2)C(=O)N(C)[C@@H](CC(C)C)C(=O)O[C@H](C)C(=O)N(C)[C@@H](CC(C)C)C(=O)O[C@H](Cc2ccccc2)C(=O)N(C)[C@@H](CC(C)C)C(=O)O[C@H](C)C(=O)N1C` [Example 8-6, (3S,6R,9S,12R,15S,18R,21S,24R)-6-benzyl-18-[[4-[(2-tert-butylimidazol-1-yl)methyl]phenyl]methyl]-3,9,15,21-tetraisobutyl-4,10,12,16,22,24-hexamethyl-1,7,13,19-tetraoxa-4,10,16,22-tetrazacyclotetracosane-2,5,8,11,14,17,20,23-octaone], the minimal effective concentration in experiment [1] fell in the range of 1 to 10 µM; in experiment [2] it was 0.01 to 0.1 µM.

Turning to `CC(C)C[C@H]1C(=O)O[C@H](Cc2ccc(Cn3ccnc3C3CC3)cc2)C(=O)N(C)[C@@H](CC(C)C)C(=O)O[C@H](C)C(=O)N(C)[C@@H](CC(C)C)C(=O)O[C@H](Cc2ccccc2)C(=O)N(C)[C@@H](CC(C)C)C(=O)O[C@H](C)C(=O)N1C` [Example 8-7, (3S,6R,9S,12R,15S,18R,21S,24R)-6-benzyl-18-[[4-[(2-cyclopropylimidazol-1-yl)methyl]phenyl]methyl]-3,9,15,21-tetraisobutyl-4,10,12,16,22,24-hexamethyl-1,7,13,19-tetraoxa-4,10,16,22-tetrazacyclotetracosane-2,5,8,11,14,17,20,23-octaone], the minimal effective concentration in experiment [1] fell in the range of 1 to 10 µM; in experiment [2], 0.001 to 0.01 µM.

As to `CC(C)C[C@H]1C(=O)O[C@H](Cc2ccc(Cn3ccnc3C(C)C)cc2)C(=O)N(C)[C@@H](CC(C)C)C(=O)O[C@H](C)C(=O)N(C)[C@@H](CC(C)C)C(=O)O[C@H](Cc2ccccc2)C(=O)N(C)[C@@H](CC(C)C)C(=O)O[C@H](C)C(=O)N1C` [Example 8-8, (3S,6R,9S,12R,15S,18R,21S,24R)-6-benzyl-3,9,15,21-tetraisobutyl-18-(4-((2-isopropyl-1H-imidazol-1-yl)methyl)benzyl)-4,10,12,16,22,24-hexamethyl-1,7,13,19-tetraoxa-4,10,16,22-tetraazacyclotetracosan-2,5,8,11,14,17,20,23-octaone], the minimal effective concentration was 1 to 10 µM in experiment [1] and 0.001 to 0.01 µM in experiment [2].

The values above are taken from patent publication US11331369B2, “Endoparasitic depsipeptides” (Zoetis Services LLC, priority 2017, dated 2022).
